Assay results published in patent US20220324835A1 (Nurix Therapeutics, Inc., priority 2018, published 2022).

Assays:
[1] = system: T-cell; assay: CD25 cell surface staining on T-cells co-stimulated with anti-CD3 and anti-CD28 antibody (Biological Example 2); type: cell-based, human; conditions: Homo sapiens, T-cell, fold change over baseline, primary human total T-cells, read-out: CD25 staining Anti-CD3/Anti-CD28 stimulation; for fold induction at 0.3 µM: 0.3 μM Cbl-b inhibitor; for fold induction at 1 µM: 1 μM Cbl-b inhibitor; for fold induction at 4 µM: 4 μM Cbl-b inhibitor
Summary of the method: (§1)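 T-cells were stimulated with anti-CD3 antibody alone or with anti-CD28 antibody, in the presence or absence of Cbl-b inhibitor. IL-2 secretion or CD25 surface staining was measured, and values expressed as fold over the uninhibited baseline […].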

[2] = biological target: T1, Cbl-b (Homo sapiens, UniProt Q13191); assay: Cbl-b inhibition assay (Cbl-b activity assay, FRET, Biological Example 1; 100 mM NaCl, 60 nM Src kinase); type: biochemical; conditions: upper bound stated in text lists; read-out: IC50 values in the Cbl-b inhibition assay of Biological Example 1
T1 sequence (Q13191 36-427): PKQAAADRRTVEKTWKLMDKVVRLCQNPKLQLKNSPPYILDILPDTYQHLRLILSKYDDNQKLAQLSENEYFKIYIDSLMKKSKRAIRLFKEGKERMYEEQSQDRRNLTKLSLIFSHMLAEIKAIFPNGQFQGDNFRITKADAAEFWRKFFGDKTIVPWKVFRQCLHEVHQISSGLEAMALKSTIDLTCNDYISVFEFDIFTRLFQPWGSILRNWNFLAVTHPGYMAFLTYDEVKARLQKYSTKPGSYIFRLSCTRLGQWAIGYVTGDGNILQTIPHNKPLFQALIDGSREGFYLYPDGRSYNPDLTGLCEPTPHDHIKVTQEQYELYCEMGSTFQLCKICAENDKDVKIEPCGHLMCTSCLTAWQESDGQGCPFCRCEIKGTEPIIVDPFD
Summary of the method: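 Steps: Src kinase phosphorylates N-terminal biotinylated Avi-tagged Cbl-b; phosphorylated Cbl-b binds Bodipy-fluorescein ubiquitin-loaded UbcH5B; streptavidin-terbium on Cbl-b sits close to the fluorescein label, producing FRET. Inhibitors block UbcH5B-Ub binding.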

[3] = system: T-cell; assay: IL-2 secretion from T-cells co-stimulated with anti-CD3 and anti-CD28 antibody (Biological Example 2); type: cell-based, human; conditions: Homo sapiens, T-cell, fold change over baseline, primary human total T-cells, read-out: IL-2 secretion Anti-CD3/Anti-CD28 stimulation; for fold induction at 0.3 µM: 0.3 μM Cbl-b inhibitor; for fold induction at 1 µM: 1 μM Cbl-b inhibitor; for fold induction at 4 µM: 4 μM Cbl-b inhibitor
Summary of the method: as §1

[4] = system: T-cell; assay: IL-2 secretion from T-cells stimulated with anti-CD3 antibody alone (Biological Example 2); type: cell-based, human; conditions: T-cell, fold change over baseline, primary human total T-cells, read-out: IL-2 secretion Anti-CD3 stimulation; for fold induction at 1 µM: 1 μM Cbl-b inhibitor; for fold induction at 8 µM: 8 μM Cbl-b inhibitor
[5] = biological target: T1, Cbl-b; assay: Cbl-b activity assay (Cbl-b inhibition assay), TR-FRET of Cbl-b interaction with UbcH5B-Ub; type: biochemical
Summary of the method: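 UbcH5B (C85K) conjugated to N-terminally Bodipy-Fluorescein-labeled ubiquitin served as the fluorescent partner. After compound preincubation, Src kinase (60 nM) with 1 mM ATP and 5 mM MgCl2 (final) was added for 1.5 h, followed by a further 1 h incubation. Some values were obtained with 50 mM NaCl and 30 nM Src.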

[6] = system: T-cell; assay: CD25 cell surface staining on T-cells stimulated with anti-CD3 antibody alone (Biological Example 2); type: cell-based, human; conditions: T-cell, fold change over baseline, primary human total T-cells, read-out: CD25 staining Anti-CD3 stimulation; for fold induction at 1 µM: 1 μM Cbl-b inhibitor; for fold induction at 8 µM: 8 μM Cbl-b inhibitor
[7] = assay buffer with 100 mM NaCl, 60 nM Src kinase, read-out: Cbl-b activity IC50

Structure (SMILES): Cc1nc(C(=O)Nc2cccc([C@H](C)Sc3nncn3C)c2)ccc1Cl [Compound 39, (S)-5-Chloro-6-methyl-N-(3-(1-((4-methyl-4H-1,2,4-triazol-3-yl)thio)ethyl)phenyl)picolinamide]
- fold induction at 0.3 µM [1]: < 1
- fold induction at 1 µM [1]: 1.01 to 1.3
- fold induction at 4 µM [1]: 1.01 to 1.3
- IC50 [2]: ≤ 500 nM
- fold induction at 0.3 µM [3]: 2.51 to 5
- fold induction at 1 µM [3]: 5 to 7.5
- fold induction at 4 µM [3]: > 7.5
- fold induction at 1 µM [4]: < 0.05
- fold induction at 8 µM [4]: 0.051 to 0.1
- IC50 ([5]; * assay buffer containing 50 mM NaCl instead of 100 mM NaCl and 30 nM Src kinase instead of 60 nM, read-out: Cbl-b activity IC50 (μM)*): 0.301 to 1 µM
- IC50 [5, 7]: 0.1 to 0.3 µM
- fold induction at 1 µM [6]: < 0.6
- fold induction at 8 µM [6]: 0.801 to 1

Structure (SMILES): C[C@H](Sc1nncn1C)c1cccc(NC(=O)c2cc(C3(O)COC3)cc(C(F)(F)F)n2)c1 [Compound 84, (S)-4-(3-hydroxyoxetan-3-yl)-N-(3-(1-((4-methyl-4H-1,2,4-triazol-3-yl)thio)ethyl)phenyl)-6-(trifluoromethyl)picolinamide]
- fold induction at 0.3 µM [1]: < 1
- fold induction at 1 µM [1]: 1.01 to 1.3
- fold induction at 4 µM [1]: 1.01 to 1.3
- IC50 [2]: ≤ 1000 nM
- fold induction at 0.3 µM [3]: < 1
- fold induction at 1 µM [3]: < 1
- fold induction at 4 µM [3]: < 1
- fold induction at 1 µM [4]: < 0.05
- fold induction at 8 µM [4]: < 0.05
- IC50 [5, 7]: 0.301 to 1 µM
- fold induction at 1 µM [6]: < 0.6
- fold induction at 8 µM [6]: 0.601 to 0.8

Structure (SMILES): COc1cc(C(=O)Nc2cccc([C@H](C)Cc3nncn3C)c2)nc(C(F)(F)F)c1 [Compound 192, (R)-4-methoxy-N-(3-(1-(4-methyl-4H-1,2,4-triazol-3-yl)propan-2-yl)phenyl)-6-(trifluoromethyl)picolinamide]
- fold induction at 0.3 µM [1]: 1.01 to 1.3
- fold induction at 1 µM [1]: 1.01 to 1.3
- fold induction at 4 µM [1]: 1.01 to 1.3
- IC50 [2]: ≤ 1000 nM
- fold induction at 0.3 µM [3]: 1.01 to 2.5
- fold induction at 1 µM [3]: 1.01 to 2.5
- fold induction at 4 µM [3]: 1.01 to 2.5
- fold induction at 1 µM [4]: 0.101 to 0.15
- fold induction at 8 µM [4]: 0.101 to 0.15
- IC50 [5, 7]: 0.301 to 1 µM
- fold induction at 1 µM [6]: 0.801 to 1
- fold induction at 8 µM [6]: 0.801 to 1

Structure (SMILES): C[C@H](Cc1nncn1C)c1cccc(NC(=O)c2cc3cc(N4CCN(C)C(=O)C4)ccc3cn2)c1 [Compound 209, (R)-6-(4-methyl-3-oxopiperazin-1-yl)-N-(3-(1-(4-methyl-4H-1,2,4-triazol-3-yl)propan-2-yl)phenyl)isoquinoline-3-carboxamide 2,2,2-trifluoroacetate]
- fold induction at 0.3 µM [1]: 1.31 to 1.5
- fold induction at 1 µM [1]: 1.31 to 1.5
- fold induction at 4 µM [1]: 1.51 to 1.75
- IC50 [2]: ≤ 100 nM
- fold induction at 0.3 µM [3]: 5 to 7.5
- fold induction at 1 µM [3]: 5 to 7.5
- fold induction at 4 µM [3]: > 7.5
- fold induction at 1 µM [4]: > 0.201
- fold induction at 8 µM [4]: > 0.201
- IC50 [5, 7]: < 0.1 µM
- fold induction at 1 µM [6]: < 0.6
- fold induction at 8 µM [6]: > 1

Structure (SMILES): Cc1ccc(C(=O)Nc2cccc(C(C)Cc3nccn3C)c2)nc1C1CC1 (stereo not shown) [Compound 214, 6-Cyclopropyl-5-methyl-N-(3-(1-(1-methyl-1H-imidazol-2-yl)propan-2-yl)phenyl)picolinamide]
- fold induction at 0.3 µM [1]: < 1
- fold induction at 1 µM [1]: < 1
- fold induction at 4 µM [1]: 1.01 to 1.3
- IC50 [2]: ≤ 10000 nM
- fold induction at 0.3 µM [3]: > 7.5
- fold induction at 1 µM [3]: > 7.5
- fold induction at 4 µM [3]: > 7.5
- fold induction at 1 µM [4]: 0.051 to 0.1
- fold induction at 8 µM [4]: 0.051 to 0.1
- IC50 [5, 7]: 1 to 3 µM
- fold induction at 1 µM [6]: < 0.6
- fold induction at 8 µM [6]: < 0.6

Structure (SMILES): Cc1ccnn1CC(C)c1cccc(NC(=O)c2cccc(C(F)(F)F)n2)c1 (stereo not shown) [Compound 215, N-[3-[1-methyl-2-(5-methylpyrazol-1-yl)ethyl]phenyl]-6-(trifluoromethyl)pyridine-2-carboxamide]
- fold induction at 0.3 µM [1]: 1.51 to 1.75
- fold induction at 1 µM [1]: 1.31 to 1.5
- fold induction at 4 µM [1]: 1.51 to 1.75
- IC50 [2]: ≤ 1000 nM
- fold induction at 0.3 µM [3]: < 1
- fold induction at 1 µM [3]: < 1
- fold induction at 4 µM [3]: 1.01 to 2.5
- fold induction at 1 µM [4]: 0.051 to 0.1
- fold induction at 8 µM [4]: 0.051 to 0.1
- IC50 [5, 7]: 0.301 to 1 µM
- fold induction at 1 µM [6]: < 0.6
- fold induction at 8 µM [6]: < 0.6

Structure (SMILES): C[C@@H](Cc1nncn1C)c1cccc(NC(=O)c2cc(C(=O)N3CC[C@H](O)C3)cc(C3CC3)n2)c1 [Compound 221, 6-Cyclopropyl-4-[(3S)-3-hydroxypyrrolidine-1-carbonyl]-N-[3-[(1S)-1-methyl-2-(4-methyl-1,2,4-triazol-3-yl)ethyl]phenyl]pyridine-2-carboxamide]
- fold induction at 0.3 µM [1]: 1.01 to 1.3
- fold induction at 1 µM [1]: 1.31 to 1.5
- fold induction at 4 µM [1]: 1.31 to 1.5
- IC50 [2]: ≤ 1000 nM
- fold induction at 0.3 µM [3]: < 1
- fold induction at 1 µM [3]: < 1
- fold induction at 4 µM [3]: < 1
- fold induction at 1 µM [4]: 0.051 to 0.1
- fold induction at 8 µM [4]: 0.051 to 0.1
- IC50 [5, 7]: 0.301 to 1 µM
- fold induction at 1 µM [6]: < 0.6
- fold induction at 8 µM [6]: < 0.6

Structure (SMILES): C[C@H](Cc1nncn1C)c1cccc(N2Cc3c(cc(C4CC4)cc3C(F)(F)F)C2=O)c1 [Compound 260, (R)-6-cyclopropyl-2-(3-(1-(4-methyl-4H-1,2,4-triazol-3-yl)propan-2-yl)phenyl)-4-(trifluoromethyl)isoindolin-1-one]
- fold induction at 0.3 µM [1]: 1.01 to 1.3
- fold induction at 1 µM [1]: 1.01 to 1.3
- fold induction at 4 µM [1]: 1.31 to 1.5
- IC50 [2]: ≤ 100 nM
- fold induction at 0.3 µM [3]: 1.01 to 2.5
- fold induction at 1 µM [3]: 1.01 to 2.5
- fold induction at 4 µM [3]: 2.51 to 5
- fold induction at 1 µM [4]: > 0.201
- fold induction at 8 µM [4]: > 0.201
- IC50 [5, 7]: < 0.1 µM
- fold induction at 1 µM [6]: 0.801 to 1
- fold induction at 8 µM [6]: > 1

Structure (SMILES): Cc1conc1CC(C)c1cccc(N2Cc3c(cccc3C(F)(F)F)C2=O)c1 (stereo not shown) [Compound 268, 2-(3-(1-(4-methylisoxazol-3-yl)propan-2-yl)phenyl)-4-(trifluoromethyl)isoindolin-1-one]
- fold induction at 0.3 µM [1]: 1.01 to 1.3
- fold induction at 1 µM [1]: 1.01 to 1.3
- fold induction at 4 µM [1]: 1.01 to 1.3
- IC50 [2]: ≤ 500 nM
- fold induction at 0.3 µM [3]: 1.01 to 2.5
- fold induction at 1 µM [3]: 1.01 to 2.5
- fold induction at 4 µM [3]: 1.01 to 2.5
- fold induction at 1 µM [4]: < 0.05
- fold induction at 8 µM [4]: 0.051 to 0.1
- IC50 [5, 7]: 0.301 to 1 µM
- fold induction at 1 µM [6]: 0.601 to 0.8
- fold induction at 8 µM [6]: 0.801 to 1

Structure (SMILES): C[C@H](Cc1nncn1C)c1cccc(N2Cc3c(cc(C(=O)N4CC(O)C4)cc3C3CC3)C2=O)c1 [Compound 278, (R)-4-cyclopropyl-6-(3-hydroxyazetidine-1-carbonyl)-2-(3-(1-(4-methyl-4H-1,2,4-triazol-3-yl)propan-2-yl)phenyl)isoindolin-1-one]
- fold induction at 0.3 µM [1]: 1.01 to 1.3
- fold induction at 1 µM [1]: 1.01 to 1.3
- fold induction at 4 µM [1]: 1.01 to 1.3
- IC50 [2]: ≤ 100 nM
- fold induction at 0.3 µM [3]: 1.01 to 2.5
- fold induction at 1 µM [3]: 1.01 to 2.5
- fold induction at 4 µM [3]: 2.51 to 5
- fold induction at 1 µM [4]: 0.151 to 0.2
- fold induction at 8 µM [4]: > 0.201
- IC50 [5, 7]: < 0.1 µM
- fold induction at 1 µM [6]: 0.801 to 1
- fold induction at 8 µM [6]: > 1

Structure (SMILES): C[C@H](Cc1nncn1C)c1cccc(N2Cc3c(cc(-c4ccn[nH]4)cc3C(F)(F)F)C2=O)c1 [Compound 279, (R)-2-(3-(1-(4-methyl-4H-1,2,4-triazol-3-yl)propan-2-yl)phenyl)-6-(1H-pyrazol-5-yl)-4-(trifluoromethyl)isoindolin-1-one]
- fold induction at 0.3 µM [1]: 1.01 to 1.3
- fold induction at 1 µM [1]: 1.31 to 1.5
- fold induction at 4 µM [1]: 1.31 to 1.5
- IC50 [2]: ≤ 100 nM
- fold induction at 0.3 µM [3]: 2.51 to 5
- fold induction at 1 µM [3]: 5 to 7.5
- fold induction at 4 µM [3]: > 7.5
- fold induction at 1 µM [4]: > 0.201
- fold induction at 8 µM [4]: > 0.201
- IC50 [5, 7]: < 0.1 µM
- fold induction at 1 µM [6]: > 1
- fold induction at 8 µM [6]: > 1

Structure (SMILES): Cn1cnnc1CC(C)(C)c1cccc(NC(=O)c2cccc(C(F)(F)F)n2)c1 [Compound 284, N-(3-(2-methyl-1-(4-methyl-4H-1,2,4-triazol-3-yl)propan-2-yl)phenyl)-6-(trifluoromethyl)picolinamide]
- fold induction at 0.3 µM [1]: 1.01 to 1.3
- fold induction at 1 µM [1]: 1.01 to 1.3
- fold induction at 4 µM [1]: 1.31 to 1.5
- IC50 [2]: ≤ 100 nM
- fold induction at 0.3 µM [3]: 1.01 to 2.5
- fold induction at 1 µM [3]: 2.51 to 5
- fold induction at 4 µM [3]: > 7.5
- fold induction at 1 µM [4]: > 0.201
- fold induction at 8 µM [4]: > 0.201
- IC50 [5, 7]: < 0.1 µM
- fold induction at 1 µM [6]: 0.801 to 1
- fold induction at 8 µM [6]: > 1
